Reference: US11919854B2, “P2RX7 modulators in therapy” (Centre national de la recherche scientifique, priority 2018, dated 2024)

Assays:
B16F10 cells = experiment: Syngeneic tumor mice model, B16F10 subcutaneous; assay type: in vivo, C57BL/6 mice
Experimental: 5×10^5 B16F10 cells were injected sub cutaneously in the right flank of C57BL/6 mice. Mice received HEI2328 (n=8, ip, 2.3 mg/kg in 10% DMSO/PBS) daily or placebo (n=8, 10% DMSO/PBS). A. incidence of tumor appearance B. Tumor size (mm2) and C. tumor weight at sacrifice day (J12). *, p<0.05 (Mann-Whitney test).
5×10^5 LLC or 5×10^5 B16F10 cells were injected sub cutaneously in the right flank of C57BL6 mice. Mice received HEI3090 (ip, 2.5 mg/kg in 10% DMSO/PBS) daily or placebo (10% DMSO/PBS). A,C. incidence of tumor appearance B,D. Tumor size (mm2) and tumor weight at sacrifice day (J12). E. HEI-treated tumors are more immunogenic. Expression of CMH1 (H2K^b/D^b) and PD-L1 by LLC (black) and B16F10 (grey) tumors is shown in dot plots. Numbers highlighted the percentage of tumor cells positive for H2K^b/D^b and PD-L1. […] F. CD-45 positive infiltrates is increased in LLC and B16F10 tumors. *, p<0.05; **, p<0.01; ***, p<0.001 Mann-Whitney test.
5×10^5 LLC or 5×10^5 B16F10 cells were injected sub cutaneously in the right flank of C57BL6 mice. Mice received HEI3090 (ip, 2.5 mg/kg in 10% DMSO/PBS) daily or placebo (10% DMSO/PBS). A. The quantity of immunosuppressive cells is reduced. Dot plot of representative experiment. Numbers highlighted the percentage of M-MDSC and PMN-MDSC. […] B. The quantity of effector T cells ([…], NK, CD4+) is increased.
Therefore the inventors tested this compound on a classical tumor mice model. 5×10^5 B16F10 cells (in 200 μl PBS) were injected subcutaneously in the right flank of C57B16 mice that received a daily intraperitoneal injection of 2.3 mg/kg HEI2328 (in PBS/10% DMSO) or placebo (PBS/10% DMSO) for 12 days. […] However, this encouraging result was not statistically significant.
4.2. By killing tumoral cells, HEI3090 may represent a new anti-tumor treatment. To test this hypothesis, immunocompetent C57B16J mice were subcutaneously injected with 5×10^5 B16F10 or 5×10^5 LLC (Lewis Lung Cancer) cells and treated daily with HEI3090 (ip, 2.5 mg/kg in 10% DMSO/PBS) or placebo (10% DMSO/PBS). […] In both tumor mice models, tumors weight in the treated group was reduced by 10-fold in the B16F10 model (8 mg vs 81 mg) and by 4-folds in the LLC model (80 mg vs 295 mg). Of interest, tumors from the HEI3090 treated group are more immunogenic than tumors from the placebo group.

[1] = Stability in mouse liver microsomes; assay type: in vitro ADME; conditions: 1 μM; 0, 5, 10, 20, 30 and 40 min; mass spectrometry
Experimental: A. HEI-2328 and -3090 are stable molecules. Mouse liver microsomes from BD Gentest (ref 5345001) were incubated with HEI-2314, -2328, -2333 and -3090 at 1 μM for 0, 5, 10, 20, 30 and 40 min. The stability of the compounds was assayed by mass spectrometry.
Stability was studied in the mouse liver microsome system—and human, not shown—(FIG. 13A) and directly in vivo, for HEI3090 molecule (FIG. 13B). These experiments highlighted that HEI3090 is found at a concentration of maximum 2.5 μM in the plasma of mice injected with HEI3090 (ip, 1.5 mg/kg in 10% DMSO).

[2] = Solubility (qualitative statement); assay type: physicochemical
[3] = system: B16F10 melanoma cell line; experiment: Large pore opening (Topro3) in B16F10 melanoma cell line; assay type: cell-based
Experimental: Calcium channel activity (Fluo4AM probe) and large pore opening (Topro3 probe) were analysed by FACS. Unstimulated (NS) or cells treated with HEI2328 (50 μM) alone or with BzATP (500 μM) were analysed. (A) Representative dots plots. Numbers highlighted the percentage of positive cells.
A. Large pore opening. Dot plot of representative experiment. Numbers highlighted the percentage of positive cells. […] B. representative curve of XTT absorbance over the time. […] Mean±SEM are shown. ***, p<0.001; ****, p<0.0001 Mann-Whitney test.
4.1. […] To test this hypothesis, immunocompetent C57B6J (Envigo, Gannat France) mice were injected with the melanoma cell line B16-F10.
Of interest, potentiation of large pore opening correlated with increased-B16F10 cell death, as illustrated in FIG. 9. Cells treated during 1 h with BzATP and HEI3090 incorporated 3-fold more Topro3 than cells treated with BzATP only (FIG. 9A). Longer incubation increased cell death, since it was observed up to 80% of dead cells after 3 h treatment (FIG. 9B).

## O=C(NCc1ccc(Cl)cc1Cl)[C@@H]1CCC(=O)N1C(=O)Nc1ccc(Cl)c(Cl)c1 [HEI2328, (S)—N^2-(2,4-Dichlorobenzyl)-N^1-(3,4-dichlorophenyl)-5-oxopyrrolidine-1,2-dicarboxamide]
B16F10 cells; HEI2328 2.3 mg/kg ip daily, 12 days
  tumor incidence: delayed
B16F10 cells; HEI2328 2.3 mg/kg ip daily, 12 days, not statistically significant
  decrease of tumor growth: 20%
[1]
  stability in mouse liver microsomes: stable
[2]
  solubility: poorly soluble
[3]; HEI2328 50 μM added on BzATP (500 μM) treated cells
  increase of large pore opening (Topro3 positive cells): more than 6 fold
[3]; absence of BzATP, 50 μM
  toxic effect of compound alone: no toxic effect

## O=C(NCc1ccc(Cl)cc1Cl)[C@@H]1CCC(=O)N1C(=O)Nc1ccc(Cl)nc1 [HEI3090, (S)—N^1-(6-Chloropyridin-3-yl)-N^2-(2,4-dichlorobenzyl)-5-oxopyrrolidine-1,2-dicarboxamide]
B16F10 cells; HEI3090 ip 2.5 mg/kg daily
  immunosuppressive cells (M-MDSC) in tumor infiltrates: less M-MDSC
B16F10 cells; HEI3090 ip 2.5 mg/kg daily (placebo 81 mg)
  tumors weight: 8 mg
B16F10 cells; HEI3090 ip 2.5 mg/kg daily, vs placebo
  reduction of tumors weight: 10 fold
[1]
  stability in mouse liver microsomes: stable
[2]
  solubility: more soluble
[3]; 1 h with BzATP and HEI3090
  Topro3 incorporation vs cells treated with BzATP only: 3 fold
